This is an account of results in ChEMBL document CHEMBL4229414, “Design and synthesis of bridged piperidine and piperazine isosteres” (Bioorg Med Chem Lett, 2018).

In data set [1] the target is D(2) dopamine receptor (Homo sapiens) (UniProt P14416). Briefly: Agonist activity at human D2L receptor expressed in CHOK1 cells assessed as inhibition of receptor response at 0.1 uM by calcium flux assay relative to control. The format is functional, cell-based. A general note: Calcium assays in cells follow changes in intracellular calcium, usually with a dye or a luminescent sensor.

For data set [2] the target is unchanged. Description: Agonist activity at human D2L receptor expressed in CHOK1 cells assessed as inhibition of receptor response at 10 uM by calcium flux assay relative to control. The format is functional, cell-based.
Data set [3] shares this target. Description: Antagonist activity at human D2L receptor expressed in CHOK1 cells assessed as inhibition of dopamine-induced calcium flux at 0.1 uM by fluorescence assay relative to control. The format is functional, cell-based.
Data set [4] has the same target. Description: Antagonist activity at human D2L receptor expressed in CHOK1 cells assessed as inhibition of dopamine-induced calcium flux at 10 uM by fluorescence assay relative to control. The format is functional, cell-based.
Data set [5] is filed under the species Homo sapiens. Briefly: Agonist activity at recombinant human D4.4 expressed in CHOK1 cells assessed as inhibition of receptor response at 0.1 uM by HTRF based cAMP assay relative to control. The format is cell-based. (TR-FRET usually uses a lanthanide donor and a delayed reading to cut background.)
The species entered for data set [6] is Homo sapiens. Briefly: Agonist activity at recombinant human D4.4 expressed in CHOK1 cells assessed as inhibition of receptor response at 10 uM by HTRF based cAMP assay relative to control. The format is cell-based.
Data set [7] deals with T1, hERG (KCNH2) (Homo sapiens, UniProt Q12809). Description: (§1) Inhibition of human ERG at 1 uM relative to control.
In data set [8] the target is T1, hERG (KCNH2). Briefly: Inhibition of human ERG at 3 uM relative to control.
In data set [9] the target is T1, hERG (KCNH2). Briefly: (§2) Inhibition of human ERG at 10 uM relative to control.
Data set [10] is described as follows: Passive permeability in human Caco2 cells. The conditions noted are these: caco-2. The format is ADME, cell-based. For orientation: Passage across Caco-2 layers is used to estimate intestinal permeability.
A short description of data set [11]: Efflux ratio of permeability in human Caco2 cells. The format is ADME, cell-based. The conditions noted are these: caco-2.
Data set [12] is described as follows: Stability in human microsomes. Note: time not given here. The format is ADME, Microsome.
A short description of data set [13]: Stability in rat microsomes. Note: time not given here. The format is ADME, Microsome.
Data set [14] in a line: Stability in mouse microsomes. Note: time not given here. The format is ADME, Microsome.
The target of data set [15] is T2, Voltage-gated inwardly rectifying potassium channel KCNH2 (Homo sapiens, UniProt Q12809). The data set is described as §1. The conditions noted are these: 1 µM.
For data set [16], the target named is T2, Voltage-gated inwardly rectifying potassium channel KCNH2. The data set is described as §2. The conditions noted are these: 10 µM.

Sequence of D(2) dopamine receptor (Homo sapiens) (P14416 whole entry): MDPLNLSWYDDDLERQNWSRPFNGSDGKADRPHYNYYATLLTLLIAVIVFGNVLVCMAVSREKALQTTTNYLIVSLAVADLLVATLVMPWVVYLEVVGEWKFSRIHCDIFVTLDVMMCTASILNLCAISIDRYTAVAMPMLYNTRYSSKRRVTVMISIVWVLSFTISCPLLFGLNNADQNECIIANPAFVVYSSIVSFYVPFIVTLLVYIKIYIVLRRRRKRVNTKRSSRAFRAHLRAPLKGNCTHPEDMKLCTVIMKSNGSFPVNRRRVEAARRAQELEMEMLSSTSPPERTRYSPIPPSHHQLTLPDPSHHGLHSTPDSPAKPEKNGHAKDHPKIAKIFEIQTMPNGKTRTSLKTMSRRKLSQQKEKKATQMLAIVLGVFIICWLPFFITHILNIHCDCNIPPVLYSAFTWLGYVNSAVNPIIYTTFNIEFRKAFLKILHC
T1 sequence (Q12809 whole entry): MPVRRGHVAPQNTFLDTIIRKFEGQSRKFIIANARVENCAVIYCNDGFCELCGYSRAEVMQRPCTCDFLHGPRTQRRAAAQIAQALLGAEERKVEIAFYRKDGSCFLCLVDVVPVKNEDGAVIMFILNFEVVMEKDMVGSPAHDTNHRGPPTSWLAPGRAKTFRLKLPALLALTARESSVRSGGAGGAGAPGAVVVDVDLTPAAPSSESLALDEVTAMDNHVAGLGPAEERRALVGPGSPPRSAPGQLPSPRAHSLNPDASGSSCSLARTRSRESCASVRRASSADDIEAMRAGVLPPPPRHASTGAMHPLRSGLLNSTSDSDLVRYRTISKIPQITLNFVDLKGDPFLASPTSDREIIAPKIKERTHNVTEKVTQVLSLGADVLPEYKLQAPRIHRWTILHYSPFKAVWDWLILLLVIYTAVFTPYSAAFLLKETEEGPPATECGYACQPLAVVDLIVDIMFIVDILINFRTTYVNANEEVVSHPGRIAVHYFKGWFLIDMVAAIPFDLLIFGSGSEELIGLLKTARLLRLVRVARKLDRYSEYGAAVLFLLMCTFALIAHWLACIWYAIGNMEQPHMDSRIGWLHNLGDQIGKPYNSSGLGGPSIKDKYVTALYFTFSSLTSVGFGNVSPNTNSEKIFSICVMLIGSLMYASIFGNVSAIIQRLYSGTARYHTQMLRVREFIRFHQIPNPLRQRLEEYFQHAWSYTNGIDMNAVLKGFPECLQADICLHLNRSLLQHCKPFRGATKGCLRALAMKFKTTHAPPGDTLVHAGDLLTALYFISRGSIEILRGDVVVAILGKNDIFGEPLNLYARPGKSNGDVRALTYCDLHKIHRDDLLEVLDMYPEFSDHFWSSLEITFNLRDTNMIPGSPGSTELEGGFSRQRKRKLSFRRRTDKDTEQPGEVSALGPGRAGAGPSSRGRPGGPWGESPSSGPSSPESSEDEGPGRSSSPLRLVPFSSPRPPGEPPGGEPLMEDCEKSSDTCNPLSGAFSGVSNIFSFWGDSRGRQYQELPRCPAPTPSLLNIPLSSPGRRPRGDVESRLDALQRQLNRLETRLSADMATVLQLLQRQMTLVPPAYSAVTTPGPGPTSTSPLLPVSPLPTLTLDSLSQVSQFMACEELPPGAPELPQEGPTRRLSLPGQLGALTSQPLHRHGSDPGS
T2 sequence (Q12809 whole entry): as above

As for `CCCN1[C@H]2CC[C@H]1CC(c1cccc(OC)c1)C2` (relative stereo), the inhibition (commonly the change of the read-out against control, counted positive when it falls) in data set [1] amounted to 9%; in data set [2] it was 32%; in data set [3] it was 12%; in [4], 13%; in data set [5], 4%; in data set [6], 16%. For the same molecule, in data set [7], the inhibition at 1 µM came to 30%. For the same molecule, the inhibition at 3 µM in [8] was determined as 54%. Also, the inhibition at 10 µM in [9] is 81%. For the same molecule, the permeability in data set [10] is reported as 100%. Moreover, in [11], the efflux ratio (commonly a quotient of directional permeabilities that is used to spot active efflux) was 2.6. The Stability came out at 4% in data set [12], 2% in data set [13] and 3% in [14].

With `CCCN1[C@H]2COC[C@H]1CC(c1ccccc1OC)C2` (relative stereo; 20) [listing 1 of 2 here], the inhibition in data set [1] worked out at 22%; in [2], 30%; in data set [3] it was 10%; in [4], 12%; in data set [5], 14%.

As to `CCCN1CCC(c2ccccc2OC)CC1`, the inhibition in data set [1] was 52%; in data set [2], 99%; in data set [3], -7%; in data set [4], 14%; in data set [5], 9%; in data set [6], 12%. Besides, in data set [7], the inhibition at 1 µM amounted to 2%. Further, the inhibition at 3 µM in data set [8] amounted to 5.5%. In data set [9], the inhibition at 10 µM is 14%. The permeability in data set [10] came to 100%. Further, the efflux ratio in data set [11] was 1. Moreover, the Stability in data set [12] is recorded as 86%; in data set [13] it was 4%; in [14], 30%.

For `CCCN1[C@H]2CC[C@H]1CC(O)(c1ccccc1OC)C2` (relative stereo), the inhibition in data set [2] is -8%. Moreover, the inhibition at 1 µM in data set [7] stood at 7%. Further, the inhibition at 3 µM in [8] worked out at 19%. The inhibition at 10 µM in data set [9] is 46%. The molecule further gave a permeability in data set [10] of 100%. Further, in data set [11], the efflux ratio was determined as 1.2. Besides, the figures for the Stability in data set [12], in [13] and in [14] were 100%, 12% and 54%, respectively.

Take `CCCN1[C@@H]2COC[C@H]1CN(c1ccccc1OC)C2`: the inhibition stood at 3% in [1]; 19% in data set [2]; 9% in [3]; 5% in data set [4]; 3% in data set [5]; 3% in data set [6]. The inhibition at 1 µM in [7] amounted to 2%. The inhibition at 3 µM in [8] was found to be 2%. The inhibition at 10 µM in [9] stood at 12%. The molecule also had a permeability in [10] of 100%. In data set [11], the efflux ratio worked out at 0.9. Also, the Stability in data set [12] is recorded as 70%; in [13], 4%; in [14], 18%.

With `CCCN1C[C@H]2OC[C@@H]1C[C@@H]2c1ccccc1OC`, the inhibition in [1] was determined as 25%; in data set [2], 16%. Moreover, the inhibition at 1 µM in data set [7] turned out to be 0%. Besides, the inhibition at 3 µM in data set [8] was 3%. Also, in [9], the inhibition at 10 µM amounted to 15%. This molecule also showed a permeability in data set [10] of 100%. In [11], the efflux ratio is 0.8. In addition, the results for the Stability in data set [12], in data set [13] and in data set [14] were 100%, 3% and 4%, respectively.

Take `CCCN1C[C@H]2OC[C@@H]1C[C@]2(O)c1ccccc1OC`: the inhibition in data set [1] is 6%; in [2], 3%; in [3], 12%; in data set [4], 16%; in data set [5], 6%; in data set [6] it was -6%. In [7], the inhibition at 1 µM worked out at 4%. Moreover, the inhibition at 3 µM in data set [8] turned out to be 5%. Moreover, the inhibition at 10 µM in [9] turned out to be 14%. Besides, the permeability in [10] stood at 100%. Besides, the efflux ratio in data set [11] came to 0.6. Besides, the Stability in data set [12] was found to be 100%; in data set [13], 15%; in data set [14], 55%.

As to `CCCN1[C@H]2CC[C@H]1CC(c1ccccc1OC)C2` (relative stereo; 8a), the inhibition was 2% in data set [1]; 35% in [2]; 14% in [3]; 29% in [4]; -3% in [5].

Consider `CCCN1[C@H]2COC[C@H]1CC(c1ccccc1OC)C2` (relative stereo; 16), for which the inhibition amounted to 4% in [1]; 11% in data set [2]; 21% in data set [3]; 34% in [4]; 3% in data set [5]; 20% in data set [6].

Turning to `CCCN1[C@H]2CC[C@H]1CC(c1cc(OC)c(OC)c(OC)c1)C2` (relative stereo), the inhibition in data set [1] was 0%; in [2] it was 4%; in [3], 12%; in [4], 8%; in data set [6] it was -1%. In [7], the inhibition at 1 µM is 20%. The inhibition at 3 µM in data set [8] was found to be 40%. The inhibition at 10 µM in [9] came out at 66%. The molecule also showed a permeability in data set [10] of 99%. For the same molecule, the efflux ratio in data set [11] was 5.6. For the same molecule, the Stability in data set [12] is recorded as 100%; in data set [13] it was 4%; in data set [14] it was 5%.

In the case of `CCCN1[C@H]2CC[C@H]1CC(c1ccccc1OC)C2` (relative stereo; 4), the inhibition in data set [1] was determined as 8%; in data set [2], 0%; in data set [3], 19%; in data set [4], 22%; in [5], 10%; in data set [6], 11%.

Turning to `CCCN1[C@H]2CC[C@H]1CC(c1ccc(OC)c(OC)c1)C2` (relative stereo), the inhibition in data set [1] is 6%; in [2], 20%; in data set [3], 8%; in data set [4], 11%; in data set [5] it was -1%; in [6], 17%. Besides, the inhibition at 1 µM in data set [7] was found to be 36%. In addition, the inhibition at 3 µM in data set [8] came out at 62%. For the same molecule, in [9], the inhibition at 10 µM was 85%. Further, in data set [10], the permeability is reported as 99%. Further, in [11], the efflux ratio was 3.4. Moreover, the Stability in [12] was found to be 50%; in [13], 4%; in data set [14], 21%.

`CCCN1C[C@H]2OC[C@@H]1C[C@@]2(O)c1ccccc1OC`: the inhibition in [1] was 25%; in data set [2], 16%; in [3], 4%; in [4] it was 4%; in data set [5], 4%; in [6] it was 15%. Further, the inhibition at 1 µM in [7] was determined as 3%. Besides, in data set [8], the inhibition at 3 µM was 4%. Besides, the inhibition at 10 µM in data set [9] came out at 6%. In addition, the permeability in [10] came to 100%. Besides, the efflux ratio in [11] was 3. In addition, the Stability in data set [12] is 66%; in data set [13] it was 53%; in [14], 18%.

In the case of `CCCN1[C@H]2COC[C@H]1CC(c1ccccc1OC)C2` (relative stereo; 20) [listing 2 of 2 here], the “inhibition (INH)” value in [15] is recorded as 17%; in data set [16], 64%. Moreover, the inhibition at 3 µM in data set [8] was found to be 34%. This molecule also displayed a permeability in data set [10] of 100%. Besides, the efflux ratio in data set [11] is 2.3. The Stability is listed as 42% in [12], 1% in [13] and 2% in data set [14].

Regarding `CCCN1CCN(c2ccccc2OC)CC1`, the inhibition in data set [1] was 50%; in data set [2] it was 99%; in [4], -1%; in data set [5] it was 9%; in [6], 12%. Besides, the inhibition at 1 µM in data set [7] turned out to be 8%. For the same molecule, the inhibition at 3 µM in data set [8] is 16%. Also, the inhibition at 10 µM in data set [9] was 41%. The molecule further showed a permeability in [10] of 100%. Moreover, the efflux ratio in data set [11] was 1.1. Besides, the Stability in data set [12] amounted to 63%; in data set [13] it was 2%; in data set [14], 2%.

For the molecule `CCCN1[C@H]2CC[C@H]1CC(c1ccc(OC)cc1)C2` (relative stereo), the inhibition is -1% in data set [1]; 40% in data set [2]; 0% in data set [3]; 9% in data set [4]; 9% in data set [5]; 21% in data set [6]. Moreover, the inhibition at 1 µM in [7] was found to be 58%. For the same molecule, in [8], the inhibition at 3 µM came out at 78%. In addition, the inhibition at 10 µM in data set [9] was 93%. For the same molecule, the permeability in data set [10] is reported as 100%. Besides, the efflux ratio in [11] came to 3. For the same molecule, the Stability in data set [12] is reported as 8%; in data set [13], 2%; in data set [14], 5%.

Regarding `CCCN1C[C@H]2OC[C@@H]1C[C@H]2c1ccccc1OC`, the inhibition in data set [1] is 4%; in [2], 7%; in [3] it was -6%; in [4], 13%; in data set [5], 5%; in data set [6] it was 21%. Further, the inhibition at 1 µM in data set [7] came to 3%. In addition, the inhibition at 3 µM in data set [8] worked out at 9%. Besides, in [9], the inhibition at 10 µM amounted to 22%. This molecule also showed a permeability in [10] of 100%. The efflux ratio in [11] stood at 0.8. Further, the Stability was 41% in data set [12], 3% in [13] and 9% in data set [14].
